Measurements published in patent US20100105770A1, “Therapeutic delivery of carbon monoxide” (priority 2006, published 2010).

Experiments:
[1] = test system: deoxymyoglobin (deoxy-Mb); assay: Release of CO from metal carbonyl complexes (myoglobin assay / CO electrode); format: physicochemical
Experimental: The release of CO from metal carbonyl complexes was assessed spectrophotometrically by measuring the conversion of deoxymyoglobin (deoxy-Mb) to carbonmonoxymyoglobin (MbCO). MbCO has a distinctive absorption spectrum between 500 and 600 nm, and changes at 540 nm were used to quantify the amount of CO liberated. Myoglobin solutions were prepared freshly by dissolving a known concentration of the protein in phosphate buffer, which was also made up to a known concentration and pH. Sodium dithionite (0.1%) was added to convert myoglobin to deoxy-Mb prior to each reading. The CORM was dissolved in the solvent specified in the solubility column of the table of FIGS. 1a-1k, before addition to the myoglobin solution.
The release of CO from metal carbonyl complexes was also detected using a prototype electrode purchased from World Precision Instrument (Stevenage, Herts, UK). The CO electrode is a membrane-covered amperometric sensor which has been designed on a basic operating principle similar to the nitric oxide (NO) sensor. In fact, the CO sensor can be connected to the ISO-NO Mark II meter for detection of the current signals providing that the poise potential is set to a different value (900 mV for CO as opposed to 860 mV for NO). In principle, CO diffuses through the gas permeable membrane and is then oxidized to CO2 on the working electrode. This oxidation will create a current whose magnitude can be related directly to the concentration of CO in solution. The CO sensor was used to generate standard curves and calculate the rates of CO release from a CORM compound at different pHs and temperatures. The electrode was immersed into the solutions at different pHs and equilibrated for 30 min prior to addition of the CORM compound. The experiments were maintained at the desired temperature using a Grant W6 thermostat (Cambridge). This method is described in the applicants' earlier publication WO 2005/114161.
Slow release rates (half-life >200 minutes) are indicated for the comparative compounds, while rapid release rates (half-life <50 minutes) were found for compounds within the invention. […] Compounds having three carbonyl ligands released CO slowly, as did compounds in which a carbon or a nitrogen atom of the ligand bond to the manganese. Slow release is also found for the compound (CORM 325) having Mn—Mn bonding.

Solubility information = format: physicochemical
From the text: Uncharged complexes, such as CORM 378, can be made water soluble by the presence of suitable ligands.

RAW264.7 macrophages = assay: Anti-inflammatory action in LPS-stimulated RAW264.7 macrophages (nitrite, Griess method); format: cell-based, mouse; settings: 24 h, 10, 50 or 100 μM compound, LPS 1 μg/ml
Experimental: (2) The anti-inflammatory action was measured in RAW264.7 macrophages incubated for 24 h with 10, 50 or 100 μM of each compound in the presence or absence of Lipopolysaccharide (LPS) (1 μg/ml). Nitrite was used as an indicator of inflammation. * indicates a reduction in inflammation detected at 100 μM; ** indicates a reduction in inflammation detected at 50 μM; *** indicates a reduction in inflammation detected at 10 μM; “None” indicates there was no effect of the compound on inflammation; N.P. indicates assay not performed.
Murine RAW264.7 monocyte macrophages were purchased from the European Collection of Cell Cultures (Salisbury, Wiltshire, UK) and cultured in Dulbecco's modified Eagle's medium (DMEM) supplemented' with 10% fetal bovine serum, 2 mM L-glutamine, 100 units ml^−1 penicillin and 0.1 mg ml^−1 streptomycin. […] Macrophages were exposed for 24 hr to LPS (1 μg ml^−) in the presence or absence of CORMs (10, 50 and 100 μM) and nitrite levels and cytotoxicity were determined at the end of the incubation. Nitrite levels were determined using the Griess method as previously described (Foresti et al. J. Biol. Chem. 272, 18411-18417, (1997)). […] The Griess reagent was added to each well to begin the reaction, the plate was shaken for 10 min and the absorbance read at 550 nm on a Molecular Devices VERSAmax plate reader. […]

isolated aortic rings = assay: Vasorelaxation of pre-contracted isolated rat aortic rings; parameters: species or system Sprague-Dawley rats; settings: for Contraction of pre-contracted aortic rings after addition of compound: varying concentrations, FIG. 3(a), 3(b)
Experimental: (3) The experiments using the isolated aortic rings were conducted to assess the extent of vasorelaxation. One hundred micromolar (100 μM) of each compound were added to a pre-contracted ring and vasorelaxation was assessed as a percentage of the initial contraction, which was expressed as good (+) or very good (++).
Vasodilatation data for CORM 371 and CORM 376 was measured as described previously by the inventors in their earlier publication, WO 2004/045599. This is described in more detail below.
The method for the preparation of isolated aortic rings has been previously described (Sammut et al Br J Pharmacol 125: 1437-1444, 1998; Motterlini et al Circ Res 90: E17-E24, 2002). The thoracic aorta was isolated from Sprague-Dawley rats (350-450 g) and flushed with cold Krebs-Henseleit buffer (4° C., pH 7.4) containing (in mM): 118 NaCl, 4.7 KCl, […], 1.2 MgSO4.7H2O, 22 NaHCO3, 11 Glucose, 0.03 K^+EDTA, 2.5 CaCl2 and supplemented with 10 μM indomethacin. Each aorta was trimmed of adventitial tissue and ring, sections (˜3 mm length) were produced from the mid aortic segment. The rings were then mounted between two stainless steel hooks in 9-mL organ baths containing Krebs-Henseleit buffer which was maintained at 37° C. and continuously gassed with 95% O2-5% CO2. One hook was attached to a Grass FT03 isometric force transducer whilst the other was anchored to a sledge for regulation of the resting tension of the aortic ring. The rings were initially equilibrated for 30 min under a resting tension of 2 g which was previously determined to be optimal. Continuous recording of tension was made on a Grass 7D polygraph (Grass Instruments, Quincy, Mass.) in combination with a Biopac MP100 system using AcqKnowledge™ software (Linton Instruments, Norfolk, UK). Before each protocol was carried out, rings were contracted with a standard dose of KCl (100 mM) in order to provide an internal reference and to control for variability in contractile responsiveness between tissues. The relaxation response to CORM-3 (25 μM) in the presence or absence of YC-1 (5 μM final concentration, 30 min pre-incubation) was assessed in aortic rings pre-contracted with phenylephrine (1 μmol/L).

O=[C]=[Mn]([Br])(=[C]=O)(=[C]=O)(=[C]=O)=[C]=O [CORM 309, [MnBr(CO)5]]
CO release rate (in words) [1]: much longer CO release times

O=[C]=[Mn]([I])(=[C]=O)(=[C]=O)(=[C]=O)=[C]=O [CORM 310, [MnI(CO)5]]
CO release rate (in words) [1]: much longer CO release times

[C-]#[O+].[C-]#[O+].[C-]#[O+].[C-]#[O+].[C-]#[O+].[Cl][Mn] [CORM 318, [MnCl(CO)5]]
CO release rate (in words) [1]: much longer CO release times

[C-]#[O+].[C-]#[O+].[C-]#[O+].[C-]#[O+].[C-]#[O+].[C-]#[O+].[C-]#[O+].[C-]#[O+].c1ccc([PH]([Mn][Mn][PH](c2ccccc2)(c2ccccc2)c2ccccc2)(c2ccccc2)c2ccccc2)cc1 [CORM 325, [Mn(CO)4(PPh3)]2]
CO release rate (in words) [1]: Slow release

OCCN(CCO)C(=S)[S-].[C-]#[O+].[C-]#[O+].[C-]#[O+].[C-]#[O+].[Mn+] [CORM 378, Mn(CO)4(η^2-S2CN{CH2CH2OH}2)]
Solubility in water (Solubility information): water soluble

C[N+](C)(C)C.O=C([O-])c1ccccc1.O=C([O-])c1ccccc1.O=C([O-])c1ccccc1.[C-]#[O+].[C-]#[O+].[C-]#[O+].[C-]#[O+].[C-]#[O+].[C-]#[O+].[Mn+].[Mn+] [CORM 379, [Me4N][Mn2(CO)6(benzoate)3]]
CO release rate (in words) [1]: rapid CO release | Anti-inflammatory action (nitrite as indicator of inflammation) (RAW264.7 macrophages): did not do so

CC(=O)[S-].CC(=O)[S-].C[N+](C)(C)C.[C-]#[O+].[C-]#[O+].[C-]#[O+].[C-]#[O+].[Mn+] [CORM-371, [Me4N][Mn(CO)4(thioacetate)2]]
Vasodilator activity in the aortic rings model (isolated aortic rings): good vasodilators | Contraction of pre-contracted aortic rings after addition of compound (isolated aortic rings): concentration-dependent decrease in contraction

[K][(OC)3Mn(μ-OCOCH3)3Mn(CO)3] [CORM-376]
Vasodilator activity in the aortic rings model (isolated aortic rings): good vasodilators | Dilatation in presence of glibenclimide (inhibition of ATP-dependent K+ channels) (isolated aortic rings; glibenclimide at two different concentrations, FIG. 3(c)): did not affect | Contraction of pre-contracted aortic rings after addition of compound (isolated aortic rings): concentration-dependent decrease in contraction | Vasorelaxation in presence of guanylate cyclase inhibitor ODQ (isolated aortic rings; with ODQ, FIG. 3(c)): significantly prevented

[Me4N][Mn(CO)4(Malonate)] [CORM 350]
CO release rate (in words) [1]: rapid CO release | Anti-inflammatory action (nitrite as indicator of inflammation) (RAW264.7 macrophages): did not do so
